Legend:
[1] = Experimental: (Comparison of Amounts of Produced Reactive Metabolites)
Ability of compounds to produce reactive metabolites was evaluated, using the method as described below. Cytochrome P450 (CYP) dependent metabolism was initiated, by adding 1 mg/mL human liver microsome, 0.2 mmol/L compound, and 0.1 mmol/L RI-labeled capture agent, and lastly 1 mmol/L NADPH to 100 mM phosphate buffer (pH 7.4). After incubation at 37° C. for 60 minutes, the reaction mixture (0.1 mL) and an equal volume of acetonitrile were added to stop the metabolic reaction. After 0.8 mL of water was added to the supernatant from centrifugation, 0.5 mL of the resulting solution was injected into HPLC connected to a radio detector and a covalent complex between the reactive metabolite and Relabeled capture agent was quantitatively analyzed for its RI intensity.

[2] = target: T1, aldehyde dehydrogenase 2 (ALDH2) (Homo sapiens, UniProt P05091); assay: Effects of compounds on the acetaldehyde oxidation rate by ALDH2 (PicoProbe Aldehyde dehydrogenase Activity Assay Kit); format: biochemical; conditions: read-out: acetaldehyde oxidation rate (rate in the absence of the compounds = 100); for activity at 1 µM: compound concentration 1 μM; for activity at 10 µM: compound concentration 10 μM
T1 construct: purchased ATGen Inc
T1 sequence (P05091 18-517): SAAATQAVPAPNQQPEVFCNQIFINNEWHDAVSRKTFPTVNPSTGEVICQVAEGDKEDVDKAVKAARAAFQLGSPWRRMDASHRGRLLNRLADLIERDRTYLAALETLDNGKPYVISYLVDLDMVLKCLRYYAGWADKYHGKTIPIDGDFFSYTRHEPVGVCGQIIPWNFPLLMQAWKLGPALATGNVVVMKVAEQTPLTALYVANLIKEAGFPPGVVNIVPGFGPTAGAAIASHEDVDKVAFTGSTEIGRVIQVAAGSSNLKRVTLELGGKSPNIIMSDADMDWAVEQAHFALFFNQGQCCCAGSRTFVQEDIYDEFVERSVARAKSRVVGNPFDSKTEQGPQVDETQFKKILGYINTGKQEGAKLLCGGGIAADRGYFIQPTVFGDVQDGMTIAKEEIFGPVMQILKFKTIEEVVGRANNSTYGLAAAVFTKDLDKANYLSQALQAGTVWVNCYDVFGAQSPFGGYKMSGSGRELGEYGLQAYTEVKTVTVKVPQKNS
Experimental: (Effects of Compounds on the Acetaldehyde Oxidation Rate by Aldehyde Dehydrogenase 2 (ALDH2))
Effects of compounds on the acetaldehyde oxidation rate by aldehyde dehydrogenase 2 (ALDH2) were evaluated using a method known in the art. Specifically, the test was performed using a commercially available kit, PicoProbe™ Aldehyde dehydrogenase Activity Assay Kit (from BioVision Inc.) in accordance with the product's instruction. Reagents as described below were sequentially added to each well in a 384-well plate with a pipette.
1. 10 μL of the commercially available ALDH2 enzyme (from ATGen Inc.) dissolved in ALDH assay Buffer so as to obtain a concentration of 1 μg/mL.
2. 10 μL, of 30 μM or 3 μM compound solution (containing 3% DMSO) prepared with ALDH assay Buffer
3. […] of Reaction mix consisting of 7.82 μL of ALDH assay Buffer, 0.55 μL of PicoProbe, 0.27 μL of Substrate Mix, and 1.36 μL of Acetaldehyde
Before addition of 3, the plate was incubated at room temperature for 5 minutes. After addition of 3, fluorescence was determined using EnVision 2101 Multilabel Reader (from PerkinElmer Inc.) at room, temperature over 60 minutes. The measurements were taken at interval of 2 minutes.
Fluorescence was detected at an excitation wavelength of 535 nm and an emission wavelength of587 nm.
Table 1 lists the oxidation rates when the compounds are added, in which the rates are calculated on the basis of the assumption that the acetaldehyde oxidation rates in the absence of the compounds are 100. The rate for Comparative Example 1 compound was normalized to a value of “175” for 10 μM of the compound concentration while the rate for Comparative Example 1 compound was normalized to a value of “137” for 1 μM of the compound concentration.

[3] = test system: mechanical allodynia induced by carrageenan in C57 BL/6J mice; assay: Suppressive effect of pain induced by carrageenan (von Frey withdrawal score); format: in vivo, mouse; conditions: mean ± S.E.
Experimental: (Suppressive Effect of Pain Induced by Carrageenan)
This experiment was earned out with reference to Science Translational Medicine 6, 251 r118 (2014). Male C57 BL/6J mice (Charles River Japan) of 7-week-old were used. Carrageenan was subcutaneously administered to the mouse by intraplantar injection of the left hind paw to induce mechanical allodynia in the footpad. Mechanical stimulus-evoked withdrawal response at 180 min after the induction was assessed by applying a von Frey filament (ascending bending force 0.16 g) to the footpad, of the hind paw. The filament was perpendicularly applied to the footpad so that the filament was bent for 6 second. The withdrawal response was scored in three stages (0: no response or startle response (moving paw without lifting); 1: lifting of paw; 2: licking or shaking of paw). The mouse was stimulated ten times and the sum of the scores of the ten stimulation (withdrawal score) was calculated.
The compound of Example 1 was dissolved in DMSO/5% glucose solution for injection (1:1 by volume ratio). […]
Wilcoxon rank sum test was used to compare the vehicle-treated group and the Example 1-treated group. The significance level was calculated as 5%, divided into less than 5% (p<0.05) and less than 1% (p<0.01). […]

| Compound | activity at 1 µM [2] | activity at 10 µM [2] | amount of reactive metabolites produced, in words [1] | Total pain-related score (withdrawal score) ([3]; 180 min after carrageenan induction, 12 mg/kg s.c. three times, **p < 0.01 vs vehicle) | Total pain-related score (withdrawal score) ([3]; Pre: before carrageenan induction) |
| --- | --- | --- | --- | --- | --- |
| O=C(NCc1ccc2c(c1)OCO2)c1c(Cl)cccc1Cl [Comparative Example 1, N-[(2H-1,3-Benzodioxol-5-yl)methyl]-2,6-dichlorobenzamide, reference compound] | 137% | 175% | produces reactive metabolites as much as clozapine |  |  |
| O=C(NCc1ccc2c(c1)OCCO2)c1c(Cl)cccc1Cl [Comparative Example 2, 2,6-dichloro-N-[(2,3-dihydro-1,4-benzodioxin-6-yl)methyl]benzamide, reference compound] | 125% | 164% |  |  |  |
| COCc1ccc(CNC(=O)c2c(Cl)cccc2Cl)cc1C [Example 4, 2,6-Dichloro-N-{[4-(methoxymethyl)-3-methylphenyl]methyl}benzamide] | 136% | 175% |  |  |  |
| COCc1ccc(CNC(=O)c2c(F)cccc2Cl)cc1F [Example 10, 2-Chloro-6-fluoro-N-{[3-fluoro-4-(methoxymethyl)phenyl]methyl}benzamide] | 125% | 168% |  |  |  |
| COCc1ccc(CNC(=O)c2c(C)cccc2C)cc1F [Example 11, N-{[3-Fluoro-4-(methoxymethyl)phenyl]methyl}-2,6-dimethylbenzamide] | 117% | 156% |  |  |  |
| COCc1ccc(CNC(=O)c2c(Cl)cccc2C(C)C)cc1F [Example 12, 2-Chloro-N-[3-fluoro-4-(methoxymethyl)benzyl]-6-isopropylbenzamide] | 136% | 175% |  |  |  |
| COCc1ccc(CNC(=O)c2c(F)cccc2F)cc1F [Example 13, 2,6-Difluoro-N-{[3-fluoro-4-(methoxymethyl)phenyl]methyl}benzamide] | 114% | 143% |  |  |  |

The next lines start with results.

| activity at 1 µM [2] | activity at 10 µM [2] | Compound | amount of reactive metabolites produced, in words [1] | Total pain-related score (withdrawal score) ([3]; 180 min after carrageenan induction, 12 mg/kg s.c. three times, **p < 0.01 vs vehicle) | Total pain-related score (withdrawal score) ([3]; Pre: before carrageenan induction) |
| --- | --- | --- | --- | --- | --- |
| 138% | 179% | COCc1ccc(CNC(=O)c2c(Cl)cccc2Cl)cc1F [Example 1, 2,6-Dichloro-N-{[3-fluoro-4-(methoxymethyl)phenyl]methyl}benzamide] |  | 6.8 ± 1.0** | 1.6 ± 0.2 |
| 125% | 168% | COCc1cc(F)c(CNC(=O)c2c(Cl)cccc2Cl)cc1F [Example 2, 2,6-Dichloro-N-{[3,6-difluoro-4-(methoxymethyl)phenyl]methyl}benzamide] |  |  |  |
| 117% | 156% | COCc1ccc(CNC(=O)c2c(Cl)cccc2Cl)cc1 [Example 3, 2,6-Dichloro-N-[4-(methoxymethyl)benzyl]benzamide] |  |  |  |
| 129% | 168% | COCc1ccc(CNC(=O)c2c(Cl)cccc2Br)cc1F [Example 5, 2-Bromo-6-chloro-N-{[3-fluoro-4-(methoxymethyl)phenyl]methyl}benzamide] |  |  |  |
| 108% | 148% | COCc1ccc(CNC(=O)c2ccccc2Cl)cc1F [Example 6, 2-Chloro-N-{[3-fluoro-4-(methoxymethyl)phenyl]methyl}benzamide] |  |  |  |
| 119% | 156% | COCc1ccc(CNC(=O)c2ccccc2Br)cc1F [Example 7, 2-Bromo-N-{[3-fluoro-4-(methoxymethyl)phenyl]methyl}benzamide] |  |  |  |
| 128% | 165% | COCc1ccc(CNC(=O)c2c(F)cccc2Br)cc1F [Example 8, 2-Bromo-6-fluoro-N-{[3-fluoro-4-(methoxymethyl)phenyl]methyl}benzamide] |  |  |  |

Reference: patent publication US10406126B2, “ALDH2 activator” (Eisai R&D Management Co., Ltd., priority 2018, dated 2019)
